Test results: patent publication US20210380548A1, “Fused [1,2,4]Thiadiazine Derivatives Which Act as KAT Inhibitors of the MYST Family” (CTxT Pty Limited, priority 2017, published 2021)
pIC50: −log10 of the molar value.

Columns and labels:
HBO-KAT7 = target: T1, HBO-KAT7 (Homo sapiens, UniProt O95251); assay: Revised Acetyltransferase Biochemical Assay, KAT7; conditions: Table 9 (HBO-KAT7), 1 μM Acetyl coenzyme A
T1 construct: encoding amino acid residues 325 to 611 (Uniprot 095251-1) of human KAT7; made in house; host or cells: E. coli BL21 DE3 RIL
T1 sequence (O95251 with tags, fused parts or gaps): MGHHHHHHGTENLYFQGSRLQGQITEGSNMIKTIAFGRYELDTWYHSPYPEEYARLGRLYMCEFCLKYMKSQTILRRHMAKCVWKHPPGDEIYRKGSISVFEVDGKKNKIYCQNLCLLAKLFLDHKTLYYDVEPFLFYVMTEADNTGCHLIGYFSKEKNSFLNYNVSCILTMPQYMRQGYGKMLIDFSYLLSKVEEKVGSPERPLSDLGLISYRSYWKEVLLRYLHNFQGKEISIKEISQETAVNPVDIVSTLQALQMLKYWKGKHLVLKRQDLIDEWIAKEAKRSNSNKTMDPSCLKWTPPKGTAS

TIP60-KAT5 [1] = target: T2, TIP60-KAT5 (Homo sapiens, UniProt Q92993); assay: Revised Acetyltransferase Biochemical Assay, KAT5; conditions: 10 nM KAT5, 1 μM AcCoA, 100 nM histone H4, 90 min
T2 construct: encoding amino acid residues 2 to 461 (Uniprot Q92993-2) of human KAT5 isoform; made in house; host or cells: E. coli BL21 DE3
T2 sequence (Q92993 2-461 isoform Q92993-2): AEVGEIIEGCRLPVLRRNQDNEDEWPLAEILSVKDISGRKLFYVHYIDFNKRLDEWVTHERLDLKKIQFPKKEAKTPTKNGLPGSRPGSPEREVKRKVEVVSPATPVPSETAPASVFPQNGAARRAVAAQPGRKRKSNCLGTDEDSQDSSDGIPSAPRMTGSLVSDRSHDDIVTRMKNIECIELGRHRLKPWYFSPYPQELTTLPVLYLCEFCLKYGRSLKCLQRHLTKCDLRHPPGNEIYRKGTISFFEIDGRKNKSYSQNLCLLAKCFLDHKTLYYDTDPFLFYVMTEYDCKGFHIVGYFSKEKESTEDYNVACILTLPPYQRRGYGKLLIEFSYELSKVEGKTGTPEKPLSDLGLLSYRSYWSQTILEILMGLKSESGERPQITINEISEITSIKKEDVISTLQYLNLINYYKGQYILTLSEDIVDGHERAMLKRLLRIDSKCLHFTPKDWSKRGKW

TIP60-KAT5 [2] = target: T2, TIP60-KAT5; assay: Acetyltransferase biochemical assay (AlphaScreen), KAT5; conditions: Table 1 (TIP60-KAT5); 0.4 μM Acetyl coenzyme A, histone H4, 10 nM enzyme
[3] = tested on: histone H3K14 acetylation (HBO1 mediated) in U2OS cells; assay: Histone H3 Lysine 14 Acetylation Biomarker Assay (96 well, U2OS); assay type: cell-based; conditions: Homo sapiens, 24 h, Table 6, H3K14ac, 24 hours incubation, serum free medium
How it was run: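 U2OS cells treated 24 h with compound in serum-free medium, then fixed and immunostained for H3K14ac (Alexa647) with Hoechst nuclear stain. High-content imaging gives mean nuclear intensity per cell, converted to % inhibition against DMSO and 10 μM reference-inhibitor controls; IC50 from four-parameter logistic fit.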

MOZ-KAT6A = target: T3, MOZ-KAT6A (Homo sapiens, UniProt Q92794, A567V); assay: Revised Acetyltransferase Biochemical Assay, KAT6A; conditions: Table 8 (MOZ-KAT6A), 1 μM Acetyl coenzyme A
T3 construct: encoding amino acid residues 507 to 778 (Uniprot Q92794-1) of human KAT6A; made in house; host or cells: E. coli BL21 DE3
T3 sequence (Q92794 507-778 A567V limits assumed): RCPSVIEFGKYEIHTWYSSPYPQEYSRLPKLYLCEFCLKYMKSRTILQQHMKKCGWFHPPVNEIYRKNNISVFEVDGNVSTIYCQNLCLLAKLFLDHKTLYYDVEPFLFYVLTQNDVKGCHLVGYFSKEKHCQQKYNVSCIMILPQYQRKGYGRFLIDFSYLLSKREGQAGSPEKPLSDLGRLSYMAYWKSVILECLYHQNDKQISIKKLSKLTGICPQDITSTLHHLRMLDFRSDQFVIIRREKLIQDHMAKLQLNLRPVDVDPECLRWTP

QKF-KAT6B = target: T4, QKF-KAT6B (Homo sapiens, UniProt Q8WYB5); assay: Acetyltransferase biochemical assay (AlphaScreen), KAT6B; conditions: Table 5 (QKF-KAT6B); 0.4 μM Acetyl coenzyme A, histone H3.1, 8 nM enzyme
T4 construct: purchased SignalChem K315-381BG
T4 sequence (Q8WYB5 whole entry): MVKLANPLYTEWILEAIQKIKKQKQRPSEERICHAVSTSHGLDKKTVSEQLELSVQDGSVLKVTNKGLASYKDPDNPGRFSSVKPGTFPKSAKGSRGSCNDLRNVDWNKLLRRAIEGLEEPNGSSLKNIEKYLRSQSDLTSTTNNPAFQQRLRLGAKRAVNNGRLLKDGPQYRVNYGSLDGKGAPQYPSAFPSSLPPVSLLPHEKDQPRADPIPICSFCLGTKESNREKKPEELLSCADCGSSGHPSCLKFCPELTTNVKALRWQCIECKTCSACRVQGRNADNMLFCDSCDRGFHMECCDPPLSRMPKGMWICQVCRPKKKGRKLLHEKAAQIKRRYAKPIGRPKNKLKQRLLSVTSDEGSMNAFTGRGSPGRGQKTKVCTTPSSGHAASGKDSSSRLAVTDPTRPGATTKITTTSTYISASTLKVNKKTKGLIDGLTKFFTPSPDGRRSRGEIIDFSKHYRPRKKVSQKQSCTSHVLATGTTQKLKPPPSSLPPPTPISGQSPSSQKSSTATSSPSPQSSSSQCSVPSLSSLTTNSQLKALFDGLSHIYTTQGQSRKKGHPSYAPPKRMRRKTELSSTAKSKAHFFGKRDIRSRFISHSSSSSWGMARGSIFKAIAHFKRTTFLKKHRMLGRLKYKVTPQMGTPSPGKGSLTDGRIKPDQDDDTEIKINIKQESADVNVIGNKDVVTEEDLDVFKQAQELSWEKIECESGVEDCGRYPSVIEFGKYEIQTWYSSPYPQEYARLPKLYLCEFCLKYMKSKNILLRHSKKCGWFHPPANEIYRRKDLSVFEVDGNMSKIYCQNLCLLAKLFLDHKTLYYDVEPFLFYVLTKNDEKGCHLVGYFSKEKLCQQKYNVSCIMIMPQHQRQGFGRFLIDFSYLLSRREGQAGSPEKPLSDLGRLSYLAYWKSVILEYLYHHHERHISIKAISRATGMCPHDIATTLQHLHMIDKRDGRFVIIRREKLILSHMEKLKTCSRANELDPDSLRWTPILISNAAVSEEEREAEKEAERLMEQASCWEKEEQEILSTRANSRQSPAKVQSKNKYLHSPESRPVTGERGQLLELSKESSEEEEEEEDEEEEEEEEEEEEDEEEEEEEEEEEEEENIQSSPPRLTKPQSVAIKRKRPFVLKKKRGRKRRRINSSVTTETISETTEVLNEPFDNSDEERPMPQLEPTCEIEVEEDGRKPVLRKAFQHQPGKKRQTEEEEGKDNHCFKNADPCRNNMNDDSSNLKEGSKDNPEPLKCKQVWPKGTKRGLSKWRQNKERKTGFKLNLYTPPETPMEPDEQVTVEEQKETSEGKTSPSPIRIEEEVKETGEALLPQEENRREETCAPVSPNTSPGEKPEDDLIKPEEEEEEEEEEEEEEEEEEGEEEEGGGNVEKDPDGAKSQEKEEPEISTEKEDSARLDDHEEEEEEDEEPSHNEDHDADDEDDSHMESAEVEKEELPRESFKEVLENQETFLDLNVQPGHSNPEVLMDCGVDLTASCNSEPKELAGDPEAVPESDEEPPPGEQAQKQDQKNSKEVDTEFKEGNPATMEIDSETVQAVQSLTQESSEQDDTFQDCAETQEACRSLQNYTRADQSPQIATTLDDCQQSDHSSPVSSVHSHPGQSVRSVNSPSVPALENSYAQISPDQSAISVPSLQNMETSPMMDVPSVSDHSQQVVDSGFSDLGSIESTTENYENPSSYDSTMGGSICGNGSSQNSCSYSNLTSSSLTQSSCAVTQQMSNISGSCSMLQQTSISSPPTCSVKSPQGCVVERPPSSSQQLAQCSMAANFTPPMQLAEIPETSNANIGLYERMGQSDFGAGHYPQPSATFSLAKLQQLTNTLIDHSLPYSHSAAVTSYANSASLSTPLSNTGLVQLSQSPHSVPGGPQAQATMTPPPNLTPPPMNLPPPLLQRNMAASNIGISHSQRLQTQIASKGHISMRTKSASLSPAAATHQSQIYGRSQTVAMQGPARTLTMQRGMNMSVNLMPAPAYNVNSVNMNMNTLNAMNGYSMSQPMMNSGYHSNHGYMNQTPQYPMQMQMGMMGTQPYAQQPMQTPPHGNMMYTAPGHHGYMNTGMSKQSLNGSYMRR

## O=C(NCC(c1ccccc1)c1ncco1)C1=Nc2ccc(Br)cc2S(=O)(=O)N1 (stereo not drawn) [Example 1, 7-Bromo-N-(2-(oxazol-2-yl)-2-phenylethyl)-2H-benzo[e][1,2,4]thiadiazine-3-carboxamide 1,1-dioxide]
HBO-KAT7
  pIC50: 7.12
TIP60-KAT5 [1]
  pIC50: 7.17
TIP60-KAT5 [2]
  pIC50: 6.54
[3]
  pIC50: 6.50
MOZ-KAT6A
  pIC50: 8.30

## O=C(NCC(c1ccccc1)c1ncco1)C1=Nc2ccccc2S(=O)(=O)N1 (stereo not drawn) [Example 46, N-(2-(oxazol-2-yl)-2-phenylethyl)-2H-benzo[e][1,2,4]thiadiazine-3-carboxamide 1,1-dioxide]
HBO-KAT7
  pIC50: 5.97
TIP60-KAT5 [1]
  pIC50: 5.39
TIP60-KAT5 [2]
  pIC50: 5.01
[3]
  pIC50: 5.09
QKF-KAT6B
  pIC50: 6.91
MOZ-KAT6A
  pIC50: 7.19

## O=C(NCCc1ccccc1-n1nccn1)C1=Nc2ccc(I)cc2S(=O)(=O)N1 [Example 60, N-(2-(2H-1,2,3-triazol-2-yl)phenethyl)-7-iodo-2H-benzo[e][1,2,4]thiadiazine-3-carboxamide 1,1-dioxide]
HBO-KAT7
  pIC50: 6.70
TIP60-KAT5 [1]
  pIC50: 7.24
TIP60-KAT5 [2]
  pIC50: 6.49
[3]
  pIC50: 5.79
MOZ-KAT6A
  pIC50: 8.00

## O=C(NCCc1ccccc1OC(F)F)C1=Nc2ccc(I)cc2S(=O)(=O)N1 [Example 91]
HBO-KAT7
  pIC50: 7.13
TIP60-KAT5 [1]
  pIC50: 7.05
TIP60-KAT5 [2]
  pIC50: 6.68
[3]
  pIC50: 6.21
MOZ-KAT6A
  pIC50: 7.62
